The values below come from US11571397B2, “Compositions and methods for treating seizure-induced sudden death” (ZOGENIX INTERNATIONAL LIMITED, priority 2018, dated 2023).

For series [1], the system named is DBA/1 mice. The series can be described thus: AGSz and S-IRA in DBA/1 mice tested for the first time at 16 h after FFA pretreatment. The series is classed as in vivo, mouse. From the text:
(§1) The typical seizure semiology in the DBA/1 mice begins with a wild running phase, followed by clonic-tonic seizures and then tonic hind-limb extension that immediately leads to S-IRA during post-ictal behavioral depression (PID). The onset of S-IRA was visually determined by the occurrence of respiratory failure following loss of the righting reflex, relaxation of the pinnae, and then a generalized loss of muscle tone. These behaviors are reliable indicators of imminent sudden death in DBA mice. Resuscitation was initiated within 10 s after pinna relaxation and the generalized loss of muscle tone, which was effective in reversing S-IRA and reviving >90% of the mice. The mice were placed in a supine position, and a polyethylene tube (4.4 mm external diameter) connected to the outflow of a rodent respirator (Harvard Apparatus 680), pumping one cc of room air at 200 strokes/min, was the placed over the nostrils, which produced observable displacement of the chest. Respiratory support was provided until spontaneous breathing rhythm returned, which required ˜19 sec. The mice were monitored until they regained the righting reflex and then returned to their home cage. Video recordings of seizure behaviors and recovery were made for off-line evaluation and analysis, including the duration of PID, as indicated by time from muscle tone loss to return of the righting reflex.
FIGS. 4A and 4B illustrate the reduction in the incidence of severe seizures and prevention of S-IRA by FFA pretreatment. In subsequent experiments, AGSz were examined in DBA/1 mice that were treated with 15 mg/kg of FFA i.p. but were initially tested at 16 h. […] [#p<0.001 (Chi-square test] (FIG. 4B). The return of S-IRA susceptibility (94.5%) in the FFA treated mice occurred at 48 h consistent with the previous findings (FIG. 2C).

Series [2] deals with children with refractory epilepsy. To be noted: 0.5 to 1 mg/kg/day; cited from earlier work.
Series [3] relates to zebrafish model of Dravet syndrome. To be noted: in vivo; cited from earlier work.
The next series deals with Dravet syndrome patients. To be noted: cited from earlier work.
Series [4] concerns DBA/1 mice. Briefly: AGSz and S-IRA in DBA/1 mice, 8-hour testing protocol. In kind it is in vivo, mouse.
From the text: as §1
The experiments herein disclosed examined the dose-response relationship of FFA (10-40 mg/kg, i.p.) on AGSz-induced behaviors in DBA/1 mice compared to vehicle (saline) treated control mice using different seizure-testing protocols. This initial protocol involved induction of AGSz at 30 min, 12 h and 24 h after drug administration, and subsequently at 24 h intervals until susceptibility to S-IRA returned. These studies were aimed at determining whether FFA can reduce the incidence (frequency) and severity of AGSz and susceptibility to S-IRA. […] To determine the effect of FFA on the severity of AGSz in DBA/1 mice, the ordinal scoring system of De Sarro and coworkers was used: no seizure=0; wild running=1; clonic seizure=2; tonic seizure=3; death/S-IRA=4. The median effective dose (ED50) for FFA for blocking AGSz at 30 min following the i.p. injection in DBA/1 mice was calculated using a second order polynomial equation (y=65.113x^2-2.0715x-63.578) that gave the best fit (R^2=0.9989).
The videos of seizure behaviors were analyzed visually, and the incidence (frequency) of AGSz, seizure severity, and incidence (frequency) of S-IRA following drug treatment were compared statistically to vehicle controls using the Chi-square, Mann-Whitney U or paired samples t-test with SPSS software. The ED50 was calculated using SigmaPlot 13 and Microsoft® Excel. The experimental protocols used in these studies were approved by the Laboratory Animal Care and Use Committee of Southern Illinois University School of Medicine, which are in accordance with National Institutes of Health guidelines for the care and use of laboratory animals. Measures to minimize animal usage as well as pain and discomfort were included in these procedures.
FIGS. 2A through 2D show a time-course of selective S-IRA blocking effect of FFA in DBA/1 mice (8 h testing protocol). The 8-h testing protocol during the first 24 h was employed in the next group of studies of the effect of 5-20 mg/kg (i.p.) doses of FFA. […] The severity of AGSz remained unaffected in the mice that received 5 (light horizontal line bars; n=9) mg/kg FFA. A significant return of AGSz severity among the FFA treated DBA/1 mice occurred by 24 h. [**p<0.01; #p<0.001 indicate statistically different from controls, Mann-Whitney U test].

The nature of series [5]: Preliminary pharmacokinetic experiments in DBA/1 mice. The series is classed as in vivo, mouse. The following applies: 16 h after 15 mg/kg. The protocol:
DBA/1 mice show consistent susceptibility to sudden death due to S-IRA immediately following AGSz unless resuscitation is rapidly provided. In the present study FFA exerted a significant dose- and time-dependent blockade of S-IRA and AGSz. […] The significant incidence of selective S-IRA blockade was also seen in the mice that were tested initially at 16 h following 15 mg/kg of FFA (FIG. 4B), further confirming the effectiveness of the drug and the time-course of the effect. […] Furthermore, the dose of 15 mg/kg FFA in adult mouse, based on body surface areas in accordance with Reagan-Shaw and co-workers, translates to the clinically effective range [1.8 mg/kg/day (child) or 1.2 mg/kg/day (adult)] used in patients. The presently disclosed FFA doses are also similar to those in the rodent studies, which established the original usefulness of this drug.

Setting [6] is: 15 mg/kg i.p., first tested at 16 h (n=73).

Where only a bound is given, the exact number is not on record here.

As to `CCNC(C)Cc1cccc(C(F)(F)F)c1` (racemic) [FFA, 3-trifluoromethyl-N-ethylamphetamine], in the series with DBA/1 mice [1] (setting [6]), the “overall incidence of S-IRA” value turned out to be 21.9% and the “overall incidence of tonic seizures” value was determined as 68.5%. For the same compound, the “incidence of selective S-IRA blockade among mice that continued to display tonic seizures” value in the series on DBA/1 mice [1] (15 mg/kg, 16 h (n=50)) came out at 68%. Also, the “return of S-IRA susceptibility” value in the series on DBA/1 mice [1] (at 48 h after 15 mg/kg) turned out to be 94.5%. The “number of seizures experienced by the patients” value in series [2] is “reduction”. Also, the “blocking electrographic and seizure-like behavioral activity” value in series [3] is recorded as “effective”. Further, the “frequency and/or severity of intractable seizures” value in the series on Dravet syndrome patients is given as “significantly reduced”. Besides, in the series on DBA/1 mice [4] (5 mg/kg), the “blocking any AGSz behavior” value is given as “ineffective”, the “effect against tonic seizures” value is given as “ineffective”, the “incidence of S-IRA” value is reported as “not affected” and the “severity of AGSz” value is recorded as “unaffected”. Moreover, in the series with DBA/1 mice [4] (15 mg/kg, 16 h time point (n=5)), the “mice with selective blockade of S-IRA among those that showed tonic AGSz” value is given as 100%. The “total incidence of selective S-IRA blockade” value in the series on DBA/1 mice [4] (15 mg/kg, during time-course studies) was 70%. Further, the “median AGSz severity scores” value in the series with DBA/1 mice [4] (10, 15 and 20 mg/kg i.p., starting at 8 h, vs saline) is given as “significant reduction”. Moreover, the “incidence of S-IRA” value in the series with DBA/1 mice [4] (10, 15 and 20 mg/kg, starting at 8 h, vs saline) is listed as “significant reduction”. Besides, the “return of susceptibility to tonic seizures” value with DBA/1 mice [4] (10-20 mg/kg) was in the range of 16 to 48 h. Also, in the series with DBA/1 mice [4] (10-20 mg/kg, at 8 h, vs saline), the “incidence of tonic seizures” value is “significantly reduced”. Further, the “duration of PID (loss of righting reflex)” value in the series with DBA/1 mice [4] (16 h after 15 mg/kg, mice with selective S-IRA blockade, pre-drug 168.6±43.4 s) was 34.6 ± 13.3 s. Further, in the series on DBA/1 mice [4] (FFA treated mice, 8-h protocol), the “return of AGSz severity” value is on record as ≤ 24 h and the “return of S-IRA susceptibility” value is 48 h. Besides, in series [5], the “plasma level of FFA and area under the curve vs levels in Dravet syndrome patients after single oral dose (0.8 mg/kg)” value is “comparable”.
